From article PMC10855879, “Formulation Studies with Cyclodextrins for Novel Selenium NSAID Derivatives” (International Journal of Molecular Sciences, 2024)
Converted amounts (≈) assume the structure as drawn. “Also recorded” adds a separate entry of the source. Like-named read-outs stand apart in the source and are kept apart here.

Legend:
[1] = Water solubility by quantitative 1H-NMR in D2O, alone or with cyclodextrin; assay type: physicochemical; conditions: for solubility: 25 °C, thermodynamic from solid, 298 K; for Improvement of water solubility after exposure to β- and γ-CD (in words): complexes versus compounds alone
Protocol: For all the Se-NSAID derivatives, the formation of inclusion complexes either with β- or γ-CDs was evaluated by quantitative proton nuclear magnetic resonance (^1H-NMR) spectroscopy (Figures S1–S40 in Supplementary Materials). The election for such CDs is based on the fact that β-CD is one of the most frequently used CDs for encapsulating NSAIDs. Additionally, given the size of the studied molecules, a larger CD such as γ-CDs was also evaluated.
The experimental formation of inclusion complexes with either β-CD or γ-CD was evaluated via quantitative ^1H-NMR spectroscopy. This method is based on the consideration that the integration for a given signal that is selected as a marker for a given compound is proportional to its concentration. Consequently, solutions of 0.5 mL in D2O (≥99.85% in deuterated component) with an excess of each compound were prepared, along with either 4 mg of dimethyl sulfone (as internal standard) or with the corresponding CD at 10 mM. ^1H-NMR spectra were recorded at 298 K on a Bruker Avance Neo at a proton resonance frequency of 400 MHz. The solubilities were calculated considering the ratio between the area of the peaks belonging to the internal standard or the CDs and the different hydrogens of the Se-NSAID derivatives.

colon cancer = test system: colon cancer; design: method as in PMID 37759969; conditions: in vitro and in vivo; cited from earlier work
[2] = water, D2O, compound alone, dimethyl sulfone internal standard, read-out: Water Solubility, Compound
[3] = D2O with β-cyclodextrin, aqueous with cosolvent or surfactant or cyclodextrin, D2O, β-CD 10 mM, read-out: Water Solubility, Compound + β-CD
[4] = D2O with γ-cyclodextrin, aqueous with cosolvent or surfactant or cyclodextrin, D2O, γ-CD 10 mM, read-out: Water Solubility, Compound + γ-CD

Compound | solubility [1, 2] [µM] | solubility [1, 3] [µM] | solubility [1, 4] [µM] | Improvement of water solubility after exposure to β- and γ-CD (in words) [1] | Increase in water solubility with β-CD ([1]; versus compound alone, D2O) | Increase in water solubility with γ-CD ([1]; versus compound alone, D2O) [fold] | Anticancer properties (in words) (colon cancer)
COc1ccc2cc(C(C)C(=O)[Se]CCC#N)ccc2c1 (centres unmarked) [I.3e] | 9.7 (≈ 3.36 µg/mL) | 992 | 273 | remarkable improvement; also recorded: remarkable increase; also recorded: almost two orders of magnitude |  |  | 
COc1ccc2c(c1)c(CC(=O)[Se]CC(=O)O)c(C)n2C(=O)c1ccc(Cl)cc1 [I.4a] | 22.4 (≈ 10.7 µg/mL) | 56.5 | 52.4 |  |  |  | 
COC(=O)C[Se]C(=O)Cc1c(C)n(C(=O)c2ccc(Cl)cc2)c2ccc(OC)cc12 [I.4b] | 12 (≈ 5.91 µg/mL) | 157 | 43.9 |  |  |  | 
COc1ccc2c(c1)c(CC(=O)[Se]CC#N)c(C)n2C(=O)c1ccc(Cl)cc1 [I.4d] | 20 (≈ 9.2 µg/mL) | 45.3 | 33.7 |  |  |  | 
COc1ccc2c(c1)c(CC(=O)[Se]CCC#N)c(C)n2C(=O)c1ccc(Cl)cc1 [I.4e] | 5.72 (≈ 2.71 µg/mL) | 45.5 | 42.1 |  |  |  | 
CC(=O)Oc1ccccc1C(=O)[Se][Se]C(=O)c1ccccc1OC(C)=O [II.1] | 8.43 (≈ 4.08 µg/mL) | 101 | 15.1 |  |  |  | 
COc1ccc2c(c1)c(CC(=O)[Se][Se]C(=O)Cc1c(C)n(C(=O)c3ccc(Cl)cc3)c3ccc(OC)cc13)c(C)n2C(=O)c1ccc(Cl)cc1 [II.2] | 0.132 (≈ 0.111 µg/mL) | 7.96 | 7.6 |  |  |  | 
COc1ccc2cc([C@H](C)C(=O)[Se][Se]C(=O)[C@@H](C)c3ccc4cc(OC)ccc4c3)ccc2c1 [II.3] | 0.605 (≈ 0.354 µg/mL) | 0.219 | 6.14 |  |  |  | 
CC(C(=O)[Se][Se]C(=O)C(C)c1cccc(C(=O)c2ccccc2)c1)c1cccc(C(=O)c2ccccc2)c1 (centres unmarked) [II.4] | 5.57 (≈ 3.52 µg/mL) | 27 | 17.7 |  |  |  | 
CC(C)Cc1ccc(C(C)C(=O)[Se][Se]C(=O)C(C)c2ccc(CC(C)C)cc2)cc1 (centres unmarked) [II.5] | 21.2 (≈ 11.4 µg/mL) | 5420 | 7500 | remarkable improvement; also recorded: remarkable increase; also recorded: almost two orders of magnitude | up to 250 fold | ≤ 350 | potent anticancer properties
